Results on 23 compounds are retold here after ChEMBL document CHEMBL1140307, “Design and synthesis of alpha-aryloxyphenylacetic acid derivatives: a novel class of PPARalpha/gamma dual agonists with potent antihyperglycemic and lipid modulating activity” (J Med Chem, 2005).

The structures appear in SMILES notation.

Test [1] addresses T1, Peroxisome proliferator-activated receptor alpha (Homo sapiens, UniProt Q07869).
T1 sequence (Q07869 whole entry): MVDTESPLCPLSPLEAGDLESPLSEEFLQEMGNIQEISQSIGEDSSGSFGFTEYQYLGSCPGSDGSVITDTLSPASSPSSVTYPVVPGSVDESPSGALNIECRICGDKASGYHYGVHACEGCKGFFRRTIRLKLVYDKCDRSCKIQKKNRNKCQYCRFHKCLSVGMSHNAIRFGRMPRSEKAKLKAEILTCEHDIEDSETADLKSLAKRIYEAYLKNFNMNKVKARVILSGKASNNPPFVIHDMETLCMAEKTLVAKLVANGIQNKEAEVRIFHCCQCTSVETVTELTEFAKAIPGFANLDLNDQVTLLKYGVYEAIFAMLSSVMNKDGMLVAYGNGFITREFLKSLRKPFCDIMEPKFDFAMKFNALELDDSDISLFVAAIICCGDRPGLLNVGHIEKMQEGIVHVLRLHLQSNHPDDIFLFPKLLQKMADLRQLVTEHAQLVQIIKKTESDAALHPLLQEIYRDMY
As to the kind of experiment: In vitro binding affinity for human PPAR alpha.

Test [2] addresses T2, Peroxisome proliferator-activated receptor gamma (Homo sapiens, UniProt P37231).
T2 sequence (P37231 whole entry): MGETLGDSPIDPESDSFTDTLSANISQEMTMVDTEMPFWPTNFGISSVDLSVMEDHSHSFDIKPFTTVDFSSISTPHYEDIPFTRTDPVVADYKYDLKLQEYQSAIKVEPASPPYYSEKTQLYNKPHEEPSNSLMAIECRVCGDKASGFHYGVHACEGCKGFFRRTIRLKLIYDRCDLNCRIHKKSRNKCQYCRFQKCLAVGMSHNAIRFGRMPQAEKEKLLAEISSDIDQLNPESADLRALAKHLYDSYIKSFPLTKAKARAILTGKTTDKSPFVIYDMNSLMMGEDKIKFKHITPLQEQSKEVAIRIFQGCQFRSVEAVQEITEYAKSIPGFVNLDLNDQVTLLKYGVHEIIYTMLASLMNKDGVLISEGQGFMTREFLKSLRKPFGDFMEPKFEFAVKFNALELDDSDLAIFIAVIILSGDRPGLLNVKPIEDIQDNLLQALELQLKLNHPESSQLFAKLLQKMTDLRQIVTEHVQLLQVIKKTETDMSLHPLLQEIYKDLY
As to the kind of experiment: In vitro binding affinity for human PPAR gamma.

Test [3] addresses T1, Peroxisome proliferator-activated receptor alpha. Kind of test: Agonist response against human PPAR alpha in transactivation assay.
The target in test [4] is T2, Peroxisome proliferator-activated receptor gamma. As to the kind of experiment: Agonist response against human PPAR gamma in transactivation assay. The class given is functional.

The term IC50 denotes the concentration that inhibits the measured activity by half. The low end stands for higher potency, the high end for lower potency. As usually defined, the EC50 is the concentration needed to bring the measured effect to its halfway point. Read a high EC50 as a less potent agent. As for `CCCc1cc(C(=O)CC)cc(CCC)c1OC(C(=O)O)c1ccccc1` (stereo not given), the values for the half-maximal inhibitory concentration (IC50) in test [1] and in test [2] were 51 nM and 2760 nM, respectively. The compound further returned a half-maximal effective concentration (EC50) in test [3] of 100 nM.

For `CCCc1cc(C(=O)CC)cc(CCC)c1CC(C(=O)O)c1ccc(C(C)C)cc1` (stereo not given), the IC50 is > 15000 nM in test [1] and > 50000 nM in test [2].

Regarding `CCC(=O)c1cc(Cl)c(OC(C(=O)O)c2ccccc2)c(Cl)c1` (stereo not given), the 50% inhibitory concentration (IC50) is 1600 nM in test [1] and > 50000 nM in test [2].

With `CCCc1cc2c(oc(=O)n2C(C)C)c(CCC)c1O[C@H](C(=O)O)c1ccccc1`, the values for the IC50 in test [1] and in test [2] were 550 nM and 1790 nM, respectively.

As to `CCCc1cc2c(oc(=O)n2CCC)c(CCC)c1O[C@H](C(=O)O)c1ccc(C(C)C)cc1`, the 50% inhibitory concentration (IC50) in test [1] is 150 nM; in test [2], 87 nM. The half-maximal effective concentration (EC50) in test [4] was determined as 120 nM.

For the compound `CCCc1cc2c(oc(=O)n2CC(F)(F)F)c(CCC)c1O[C@H](C(=O)O)c1ccc(C(C)C)cc1`, the values for the concentration for half-maximal inhibition (IC50) in test [1] and in test [2] were 100 nM and 110 nM, respectively. Moreover, the 50% effective concentration (EC50) in test [3] is 310 nM; in test [4], 140 nM.

`CCCc1cc(C(=O)CC)cc(CCC)c1O[C@@H](C(=O)O)c1ccc(C(C)C)cc1`: the IC50 turned out to be 3900 nM in test [1] and 2980 nM in test [2].

As to `CCCc1cc(C(=O)CC)cc(C)c1OC(C(=O)O)c1ccc(C(C)C)cc1` (stereo not given), the IC50 in test [1] was 160 nM; in test [2], 260 nM. For the same compound, the EC50 amounted to 160 nM in test [3] and 197 nM in test [4].

In the case of `CCCc1cc2c(=O)n(C3CCCCC3)oc2c(CCC)c1O[C@H](C(=O)O)c1ccc(C(C)C)cc1`, the IC50 in test [1] is > 15000 nM; in test [2], 440 nM.

For the compound `CCC(=O)c1cc(C)c(OC(C(=O)O)c2ccccc2)c(C)c1` (stereo not given), the half-maximal inhibitory concentration (IC50) in test [1] is 3000 nM; in test [2], > 50000 nM.

For the compound `CCCc1cc2c(oc(=O)n2C)c(CCC)c1O[C@H](C(=O)O)c1ccc(C(C)C)cc1`, the IC50 is 393 nM in test [1] and 85 nM in test [2]. The same compound displayed an EC50 in test [4] of 640 nM.

For the compound `CCCc1c(O[C@H](C(=O)O)c2ccc(C(C)C)cc2)c(Cl)cc2c1oc(=O)n2CC`, the IC50 amounted to 1410 nM in test [1] and 520 nM in test [2]. In addition, in test [4], the concentration giving a half-maximal response (EC50) came to 360 nM.

Consider `CCCc1cc2c(oc(=O)n2CC2CC2)c(CCC)c1O[C@H](C(=O)O)c1ccc(C(C)C)cc1`, for which the figures for the IC50 in test [1] and in test [2] were 130 nM and 120 nM, respectively. This compound also registered a concentration for a half-maximal effect (EC50) in test [4] of 330 nM.

As for `CCCc1cc(C(=O)C(C)C)cc(CCC)c1OC(C(=O)O)c1ccccc1` (stereo not given), the values for the half-maximal inhibitory concentration (IC50) in test [1] and in test [2] were 160 nM and 3160 nM, respectively. The compound also yielded a half-maximal effective concentration (EC50) in test [3] of 250 nM.

For `CCCc1cc(C(=O)C(C)(C)C)cc(CCC)c1OC(C(=O)O)c1ccccc1` (stereo not given), the IC50 was found to be 130 nM in test [1] and 2700 nM in test [2]. This compound yielded a 50% effective concentration (EC50) in test [3] of 160 nM.

For `CCCc1cc(C(=O)c2ccccc2)cc(CCC)c1OC(C(=O)O)c1ccccc1` (stereo not given), the results for the concentration for half-maximal inhibition (IC50) in test [1] and in test [2] were 800 nM and 4680 nM, respectively.

As for `CCC(=O)c1cc(C(C)CC)c(OC(C(=O)O)c2ccccc2)c(C(C)CC)c1` (stereo not given), the IC50 in test [1] is 6120 nM; in test [2], > 50000 nM.

With `CCCc1cc2c(oc(=O)n2CC)c(CCC)c1O[C@H](C(=O)O)c1ccc(Cl)cc1`, the values for the half-inhibitory concentration (IC50) in test [1] and in test [2] were 260 nM and 220 nM, respectively.

For the compound `CCCc1cc(C(=O)CC)cc(CCC)c1O[C@H](C(=O)O)c1ccc(OC(C)C)cc1`, the IC50 is 43 nM in test [1] and 200 nM in test [2]. In addition, the EC50 in test [3] was 110 nM.

`CCCc1cc(C(=O)CC)cc(CCC)c1O[C@H](C(=O)O)c1ccc(C(F)(F)F)cc1`: the figures for the IC50 in test [1] and in test [2] were 89 nM and 210 nM, respectively. Also, in test [3], the midpoint of the response, the EC50, lay at 250 nM.

For `CCCc1cc2c(=O)n(C(C)C)oc2c(CCC)c1O[C@H](C(=O)O)c1ccc(CC(C)C)cc1`, the IC50 in test [1] was found to be 790 nM; in test [2] it was 260 nM. In test [4], this compound displayed an EC50 of 370 nM.

Consider `CCCc1cc(C(=O)CC)cc(CCC)c1NC(C(=O)O)c1ccc(C(C)C)cc1` (stereo not given), for which the IC50 in test [1] and in test [2] was > 50000 nM throughout.

On to `CCC(=O)c1ccc(OC(C(=O)O)c2ccccc2)cc1` (stereo not given), for which the IC50 in test [1] and in test [2] was > 50000 nM in each case.
